# Measured values: patent US10421765B2, “Tetrahydropyrido[4,3-d]pyrimidine inhibitors of ATR kinase” (Board of Regents, The University of Texas System, priority 2017, dated 2019)
# pIC50: −log10 of the molar value.
# Tests used:
# [1] = system: ATR-driven phosphorylation of Chk1 kinase at Serine 345 in HT-29 colorectal adenocarcinoma cells; assay: pCHK1 cellular assay (CHK1 p-Ser345 AlphaScreen SureFire); format: cell-based; settings: Homo sapiens, HT-29, HT-29 cells, 4-nitroquinoline N-oxide 12 uM; read-out: Cell IC50 (pCHK1 IC50 values)
# Procedure, shortened: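 HT-29 cells seeded overnight, treated with 1:3 serially diluted compound for 90 minutes at 37° C., then 12 uM (final) 4-nitroquinoline N-oxide for 120 minutes. Lysates read for Chk1 p-Ser345 by AlphaScreen SureFire; IC50 from four-parameter logistic fit, normalized to DMSO (max) and 5 uM ATR inhibitor (min).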
# [2] = target: ATR/ATRIP complex (Homo sapiens (Human), UniProt Q13535); assay: ATR/ATRIP enzymatic assay (Caliper-based); format: biochemical; settings: FAM-labeled RAD17 peptide, ATP; read-out: ATR/ATRIP Enzyme IC50
# ATR/ATRIP complex, sequence (Q13535 whole entry): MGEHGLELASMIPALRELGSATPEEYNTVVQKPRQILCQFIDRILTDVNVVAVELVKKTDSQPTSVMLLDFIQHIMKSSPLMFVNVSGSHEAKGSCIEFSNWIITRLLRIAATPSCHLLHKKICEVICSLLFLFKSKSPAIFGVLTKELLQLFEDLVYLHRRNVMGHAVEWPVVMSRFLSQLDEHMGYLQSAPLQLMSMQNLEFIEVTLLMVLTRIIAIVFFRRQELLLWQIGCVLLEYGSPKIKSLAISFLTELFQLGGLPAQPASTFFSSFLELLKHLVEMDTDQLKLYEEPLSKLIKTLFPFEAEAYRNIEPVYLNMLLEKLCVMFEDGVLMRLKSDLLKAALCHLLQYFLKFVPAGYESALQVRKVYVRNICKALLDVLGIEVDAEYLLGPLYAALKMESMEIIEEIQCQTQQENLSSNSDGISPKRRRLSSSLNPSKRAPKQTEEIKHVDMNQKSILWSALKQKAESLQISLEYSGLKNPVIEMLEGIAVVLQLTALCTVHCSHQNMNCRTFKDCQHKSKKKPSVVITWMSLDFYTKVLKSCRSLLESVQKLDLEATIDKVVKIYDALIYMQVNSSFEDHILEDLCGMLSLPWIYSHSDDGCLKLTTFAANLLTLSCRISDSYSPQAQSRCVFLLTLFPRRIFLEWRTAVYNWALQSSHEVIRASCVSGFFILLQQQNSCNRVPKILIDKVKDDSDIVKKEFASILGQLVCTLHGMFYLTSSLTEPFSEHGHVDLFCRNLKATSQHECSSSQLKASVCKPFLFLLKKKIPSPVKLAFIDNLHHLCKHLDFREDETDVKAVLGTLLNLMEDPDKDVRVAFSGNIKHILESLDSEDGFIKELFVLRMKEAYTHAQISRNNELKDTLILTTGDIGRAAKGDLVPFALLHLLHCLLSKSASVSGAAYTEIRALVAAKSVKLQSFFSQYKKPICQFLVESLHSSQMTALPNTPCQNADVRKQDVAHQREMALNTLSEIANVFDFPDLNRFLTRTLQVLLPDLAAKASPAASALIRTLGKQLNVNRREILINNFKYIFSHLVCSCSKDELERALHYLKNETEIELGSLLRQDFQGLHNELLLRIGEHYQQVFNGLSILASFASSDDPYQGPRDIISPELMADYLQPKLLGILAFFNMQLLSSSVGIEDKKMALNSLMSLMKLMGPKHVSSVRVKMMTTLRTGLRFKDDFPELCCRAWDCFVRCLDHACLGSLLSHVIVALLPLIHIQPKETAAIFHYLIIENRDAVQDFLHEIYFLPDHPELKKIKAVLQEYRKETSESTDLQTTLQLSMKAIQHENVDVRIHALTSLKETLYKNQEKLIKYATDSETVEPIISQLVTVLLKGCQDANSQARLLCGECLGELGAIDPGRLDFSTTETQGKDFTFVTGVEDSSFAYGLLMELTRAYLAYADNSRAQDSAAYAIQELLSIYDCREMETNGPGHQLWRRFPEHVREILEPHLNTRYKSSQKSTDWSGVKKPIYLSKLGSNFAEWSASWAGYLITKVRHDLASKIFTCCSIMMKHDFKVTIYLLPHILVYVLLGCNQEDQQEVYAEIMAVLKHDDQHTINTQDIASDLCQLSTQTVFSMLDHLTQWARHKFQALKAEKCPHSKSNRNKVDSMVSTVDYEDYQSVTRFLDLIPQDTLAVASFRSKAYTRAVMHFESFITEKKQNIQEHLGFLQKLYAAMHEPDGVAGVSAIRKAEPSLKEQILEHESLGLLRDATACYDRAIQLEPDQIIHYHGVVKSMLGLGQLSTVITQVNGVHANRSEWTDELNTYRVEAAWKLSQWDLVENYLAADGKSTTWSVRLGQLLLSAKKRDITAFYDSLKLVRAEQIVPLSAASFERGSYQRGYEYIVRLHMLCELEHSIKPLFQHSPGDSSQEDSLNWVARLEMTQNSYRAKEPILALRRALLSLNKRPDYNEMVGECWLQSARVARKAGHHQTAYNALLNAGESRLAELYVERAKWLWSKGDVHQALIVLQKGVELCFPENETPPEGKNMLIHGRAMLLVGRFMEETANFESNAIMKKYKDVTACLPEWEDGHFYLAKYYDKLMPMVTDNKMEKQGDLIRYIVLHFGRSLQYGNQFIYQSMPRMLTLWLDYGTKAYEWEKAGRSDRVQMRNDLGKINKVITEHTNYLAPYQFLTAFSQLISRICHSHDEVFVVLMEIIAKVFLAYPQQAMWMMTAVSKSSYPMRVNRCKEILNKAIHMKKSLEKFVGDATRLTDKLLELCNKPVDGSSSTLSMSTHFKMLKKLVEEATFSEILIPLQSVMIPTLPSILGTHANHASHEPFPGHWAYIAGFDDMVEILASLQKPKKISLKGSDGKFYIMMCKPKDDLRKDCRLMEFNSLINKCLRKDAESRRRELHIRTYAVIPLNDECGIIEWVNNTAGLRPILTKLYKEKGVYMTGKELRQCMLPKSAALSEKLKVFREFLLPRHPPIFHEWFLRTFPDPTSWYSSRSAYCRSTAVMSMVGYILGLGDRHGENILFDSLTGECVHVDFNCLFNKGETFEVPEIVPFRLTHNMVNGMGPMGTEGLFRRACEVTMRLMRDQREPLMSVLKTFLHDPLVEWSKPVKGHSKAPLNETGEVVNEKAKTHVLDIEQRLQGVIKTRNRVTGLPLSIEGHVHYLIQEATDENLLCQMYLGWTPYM
# ATR/ATRIP complex, sequence (Q8WXE1 whole entry partner): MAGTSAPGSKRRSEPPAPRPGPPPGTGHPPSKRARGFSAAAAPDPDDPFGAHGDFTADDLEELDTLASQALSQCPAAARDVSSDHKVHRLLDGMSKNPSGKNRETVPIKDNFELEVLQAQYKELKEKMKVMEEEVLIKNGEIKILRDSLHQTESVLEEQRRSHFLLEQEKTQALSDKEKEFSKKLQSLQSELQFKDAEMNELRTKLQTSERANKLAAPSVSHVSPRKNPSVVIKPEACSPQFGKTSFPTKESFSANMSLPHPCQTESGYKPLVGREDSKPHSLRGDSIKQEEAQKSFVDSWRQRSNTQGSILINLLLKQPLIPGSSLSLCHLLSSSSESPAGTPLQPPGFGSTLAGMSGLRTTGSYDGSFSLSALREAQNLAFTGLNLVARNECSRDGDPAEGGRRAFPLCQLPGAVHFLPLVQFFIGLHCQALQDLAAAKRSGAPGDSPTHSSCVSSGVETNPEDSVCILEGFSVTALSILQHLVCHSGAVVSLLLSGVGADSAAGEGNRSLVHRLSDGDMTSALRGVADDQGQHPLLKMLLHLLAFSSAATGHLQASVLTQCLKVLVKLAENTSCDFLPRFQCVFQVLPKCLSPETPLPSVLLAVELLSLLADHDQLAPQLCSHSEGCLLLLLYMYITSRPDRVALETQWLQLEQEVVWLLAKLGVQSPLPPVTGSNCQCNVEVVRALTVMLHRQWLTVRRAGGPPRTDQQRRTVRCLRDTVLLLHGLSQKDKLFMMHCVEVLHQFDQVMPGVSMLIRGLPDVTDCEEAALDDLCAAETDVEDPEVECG
# Procedure, shortened: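 FLAG-TEV-ATR/His6-ATRIP co-expressed in HEK293 and anti-FLAG purified. Compound preincubated 30 min at 28 °C with enzyme (2x solution 4 nM), then FAM-RAD17 peptide (2x solution 10 uM, 2 μM ATP) added for 6 h at 28 °C; HEPES pH 8, 10 mM MnCl2. Caliper conversion read-out, IC50 from four-parameter fit.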
pIC50 [1],pIC50 [2],SMILES
7.08,6.95,"C[C@@H]1Cc2ncnc(N3CC(NS(=O)(=O)C4CC4)C3)c2CN1c1ccnc2[nH]ccc12 [Example 85, (R)-N-(1-(7-methyl-6-(1H-pyrrolo[2,3-b]-pyridin-4-yl)-5,6,7,8-tetrahydropyrido[4,3-d]-pyrimidin-4-yl)azetidin-3-yl)cyclopropane-sulfonamide]"
7.42,6.61,"C[C@@H]1Cc2ncnc(N3CC(C#N)C3)c2CN1c1ccnc2[nH]ccc12 [Example 81, (R)-1-(7-methyl-6-(1H-pyrrolo[2,3-b]pyridin-4-yl)-5,6,7,8-tetrahydro-pyrido[4,3-d]pyrimidin-4-yl)azetidine-3-carbonitrile]"
7.27,6.57,"C[C@@H]1Cc2ncnc(C3CCN(S(C)(=O)=O)CC3)c2CN1c1cc(C2CC2)nc2[nH]ccc12 [Example 95, (R)-6-(6-cyclopropyl-1H-pyrrolo[2,3-b]pyridin-4-yl)-7-methyl-4-(1-(methylsulfonyl)-piperidin-4-yl)-5,6,7,8-tetrahydropyrido[4,3-d]-pyrimidine]"
6.12,5.48,"C[C@@H]1Cc2ncnc([C@@H]3CCN(S(C)(=O)=O)C(C)(C)C3)c2CN1c1ccnc2[nH]ccc12 (single isomer, unassigned) [Example 48a]"
7.10,6.14,"C[C@@H]1Cc2ncnc(N3CC(NS(C)(=O)=O)C3)c2CN1c1ccnc2[nH]ccc12 [Example 84, (R)-N-(1-(7-methyl-6-(1H-pyrrolo[2,3-b]-pyridin-4-yl)-5,6,7,8-tetrahydropyrido[4,3-d]pyrimidin-4-yl)-azetidin-3-yl)-methanesulfonamide]"
7.74,6.57,"COc1cc(N2Cc3c(ncnc3C3CCN(S(C)(=O)=O)CC3)C[C@H]2C)c2cc[nH]c2n1 [Example 91, (R)-6-(6-methoxy-1H-pyrrolo[2,3-b]pyridin-4-yl)-7-methyl-4-(1-(methylsulfonyl)-piperidin-4-yl)-5,6,7,8-tetrahydropyrido[4,3-d]-pyrimidine]"
7.89,7.03,"C[C@@H]1Cc2ncnc(C3CCN(S(C)(=O)=O)CC3)c2CN1c1cc(OC2CC2)nc2[nH]ccc12 [Example 97, (R)-6-(6-cyclopropoxy-1H-pyrrolo[2,3-b]pyridin-4-yl)-7-methyl-4-(1-(methylsulfonyl)piperidin-4-yl)-5,6,7,8-tetrahydro-pyrido[4,3-d]pyrimidine]"
7.29,6.48,"C[C@@H]1Cc2ncnc(N3CC[C@H](S(C)(=O)=O)C3)c2CN1c1cc(Cl)nc2[nH]ccc12 [Example 86, (R)-6-(6-chloro-1H-pyrrolo[2,3-b]pyridin-4-yl)-7-methyl-4-((S)-3-(methylsulfonyl)-pyrrolidin-1-yl)-5,6,7,8-tetrahydropyrido[4,3-d]-pyrimidine]"
7.60,6.23,"C[C@@H]1Cc2ncnc(N3CCC(C)(O)CC3)c2CN1c1cc(Cl)nc2[nH]ccc12 [Example 66, (R)-1-(6-(6-chloro-1H-pyrrolo[2,3-b]pyridin-4-yl)-7-methyl-5,6,7,8-tetrahydropyrido[4,3-d]-pyrimidin-4-yl)-4-methyl-piperidin-4-ol]"
8.10,6.80,"C[C@@H]1Cc2ncnc(N3CCCC(S(C)(=O)=O)C3)c2CN1c1cc(Cl)nc2[nH]ccc12 (stereo partly drawn) [Example 65, (7R)-6-(6-chloro-1H-pyrrolo[2,3-b]pyridin-4-yl)-7-methyl-4-(3-(methylsulfonyl)-piperidin-1-yl)-5,6,7,8-tetrahydropyrido[4,3-d]-pyrimidine]"
6.92,6.15,"C[C@@H]1Cc2ncnc(N3CCC[C@@H](NS(C)(=O)=O)C3)c2CN1c1cc(Cl)nc2[nH]ccc12 [Example 72, N-((R)-1-((R)-6-(6-chloro-1H-pyrrolo[2,3-b]-pyridin-4-yl)-7-methyl-5,6,7,8-tetrahydropyrido-[4,3-d]pyrimidin-4-yl)-piperidin-3-yl)-methanesulfonamide]"
7.52,6.51,"CCOc1cc(N2Cc3c(ncnc3C3CCN(S(C)(=O)=O)CC3)C[C@H]2CF)c2cc[nH]c2n1 [Example 55b, (S)-6-(6-ethoxy-1H-pyrrolo[2,3-b]pyridin-4-yl)-7-(fluoromethyl)-4-(1-(methylsulfonyl)piperidin-4-yl)-5,6,7,8-tetrahydropyrido[4,3-d]pyrimidine]"
7.10,6.10,"C[C@@H]1Cc2ncnc(N3CCC(C#N)CC3)c2CN1c1ccnc2[nH]ccc12 [Example 82, (R)-1-(7-methyl-6-(1H-pyrrolo[2,3-b]pyridin-4-yl)-5,6,7,8-tetrahydro-pyrido[4,3-d]pyrimidin-4-yl)piperidine-4-carbonitrile]"
7.41,6.39,"COC(=O)N1CCCC(c2ncnc3c2CN(c2cc(Cl)nc4[nH]ccc24)[C@H](C)C3)C1 (stereo partly drawn) [Example 10, Methyl 3-((R)-6-(6-chloro-1H-pyrrolo[2,3-b]pyridin-4-yl)-7-methyl-5,6,7,8-tetrahydro-pyrido[4,3-d]pyrimidin-4-yl)piperidine-1-carboxylate bis(trifluoroacetate)]"
6.26,5.58,"C[C@@H]1Cc2ncnc(C3CCN(S(C)(=O)=O)CC3)c2CN1c1nccc2[nH]ccc12 [Example 59, (R)-7-methyl-4-(1-(methylsulfonyl)piperidin-4-yl)-6-(1H-pyrrolo[3,2-c]pyridin-4-yl)-5,6,7,8-tetrahydropyrido[4,3-d]pyrimidine]"
